Values of other authors as cited in US20240189256A1, “COMPOSITIONS FOR PRE-SURGICAL NUTRITIONAL SUPPLEMENTS” (TM Nutrition LLC, priority 2022, published 2024).

Tests used:
[1] = given orally
[2] = unless sepsis is present

## N=C(N)NCCC[C@H](N)C(=O)O [arginine]
[1]
  half-life: 1.5 to 2 h
[2]
  supplementation safe and well tolerated up to: up to 10 g/day
